What is called MIC is the least concentration at which growth counts as inhibited. A high value points to weaker potency.

Assay type in all cases: functional
Test [1] concerns Capnocytophaga sputigena. Description: Antimicrobial activity against Capnocytophaga sputigena CIP 104301T after 2 days by agar dilution method. The settings on record: 48 h. For orientation: In agar dilution, organisms are placed on agar that contains the substance at set levels.
For test [2], the system named is Escherichia coli. Description: Antimicrobial activity against Escherichia coli TOP10 after 2 days by agar dilution method. The following applies: TOP10, 48 h.
Test [3] has as its system Capnocytophaga sputigena. Description: Antimicrobial activity against Capnocytophaga sputigena isolate NOR after 2 days by agar dilution method. The settings on record: 48 h.
The test system of test [4] is Capnocytophaga sputigena. Description: Antimicrobial activity against Capnocytophaga sputigena CRBIP 17.39 after 2 days by agar dilution method. The settings on record: CRBIP 17.39, 48 h.
Test [5] concerns Escherichia coli. Description: Antimicrobial activity against Escherichia coli TOP10(pNOR-1) expressing CSP-1 gene after 2 days by agar dilution method. The settings on record: 48 h.

Converted amounts (≈) assume the structure as drawn. A value given as a limit tells only on which side of the number the result lay.

On to `CO/N=C(\C(=O)N[C@@H]1C(=O)N2C(C(=O)O)=C(COC(C)=O)CS[C@H]12)c1csc(N)n1` [CEFOTAXIME], for which the minimal inhibitory concentration (MIC) in the test on Capnocytophaga sputigena [1] was below 0.06 µg/mL; against Escherichia coli [2], below 0.06 µg/mL; against Capnocytophaga sputigena [3], 0.25 µg/mL (≈ 0.549 µM); against Capnocytophaga sputigena [4], below 0.06 µg/mL; against Escherichia coli [5] it was 8 µg/mL (≈ 17.6 µM).

Turning to `CO/N=C(\C(=O)N[C@@H]1C(=O)N2C(C(=O)O)=C(COC(N)=O)CS[C@H]12)c1ccco1` [CEFUROXIME], the MIC stood at 0.5 µg/mL (≈ 1.18 µM) against Capnocytophaga sputigena [1]; 0.5 µg/mL (≈ 1.18 µM) against Escherichia coli [2]; 64 µg/mL (≈ 151 µM) against Capnocytophaga sputigena [3]; 0.5 µg/mL (≈ 1.18 µM) against Capnocytophaga sputigena [4]; 256 µg/mL (≈ 603 µM) against Escherichia coli [5].

Regarding `CC1(C)S[C@@H]2[C@H](NC(=O)[C@H](N)c3ccc(O)cc3)C(=O)N2[C@H]1C(=O)O` [AMOXICILLIN], the minimum inhibitory concentration (MIC) is 0.25 µg/mL (≈ 0.684 µM) with Capnocytophaga sputigena [1]; 2 µg/mL (≈ 5.47 µM) against Escherichia coli [2]; 256 µg/mL (≈ 701 µM) against Capnocytophaga sputigena [3]; 0.25 µg/mL (≈ 0.684 µM) in the test with Capnocytophaga sputigena [4]; above 512 µg/mL against Escherichia coli [5].

On to `CO[C@@]1(NC(=O)Cc2cccs2)C(=O)N2C(C(=O)O)=C(COC(N)=O)CS[C@@H]21` [CEFOXITIN], for which the MIC against Capnocytophaga sputigena [1] was determined as 0.5 µg/mL (≈ 1.17 µM); in the test with Escherichia coli [2], 2 µg/mL (≈ 4.68 µM); with Capnocytophaga sputigena [3], 0.5 µg/mL (≈ 1.17 µM); in the test on Capnocytophaga sputigena [4], 0.5 µg/mL (≈ 1.17 µM); against Escherichia coli [5] it was 2 µg/mL (≈ 4.68 µM).

Consider `C[C@@H](O)[C@H]1C(=O)N2C(C(=O)O)=C(SCCNC=N)C[C@H]12` [IMIPENEM ANHYDROUS], for which the MIC against Capnocytophaga sputigena [1], against Capnocytophaga sputigena [3], with Capnocytophaga sputigena [4] and in the test with Escherichia coli [5] was 0.06 µg/mL (≈ 0.2 µM) each time.

For the molecule `CCN1CCN(C(=O)N[C@@H](C(=O)N[C@@H]2C(=O)N3[C@@H]2SC(C)(C)[C@@H]3C(=O)O)c2ccccc2)C(=O)C1=O` [PIPERACILLIN], the MIC in the test with Capnocytophaga sputigena [1] came out at 0.25 µg/mL (≈ 0.483 µM); against Escherichia coli [2], 1 µg/mL (≈ 1.93 µM); with Capnocytophaga sputigena [3] it was 0.5 µg/mL (≈ 0.966 µM); in the test on Capnocytophaga sputigena [4], 0.25 µg/mL (≈ 0.483 µM); against Escherichia coli [5], 16 µg/mL (≈ 30.9 µM).

Turning to `CC(=O)OCC1=C(C(=O)O)N2C(=O)[C@@H](NC(=O)Cc3cccs3)[C@H]2SC1` [CEPHALOTHIN], the minimal inhibitory concentration (MIC) was 0.25 µg/mL (≈ 0.631 µM) in the test on Capnocytophaga sputigena [1]; 4 µg/mL (≈ 10.1 µM) in the test on Escherichia coli [2]; 64 µg/mL (≈ 161 µM) in the test with Capnocytophaga sputigena [3]; 0.125 µg/mL (≈ 0.315 µM) against Capnocytophaga sputigena [4]; above 512 µg/mL against Escherichia coli [5].

On to `CC1(C)S[C@@H]2[C@H](NC(=O)[C@H](C(=O)O)c3ccsc3)C(=O)N2[C@H]1C(=O)O` [TICARCILLIN], for which the minimum inhibitory concentration (MIC) in the test with Capnocytophaga sputigena [1] is 0.25 µg/mL (≈ 0.65 µM); with Escherichia coli [2], 1 µg/mL (≈ 2.6 µM); in the test on Capnocytophaga sputigena [3], 4 µg/mL (≈ 10.4 µM); against Capnocytophaga sputigena [4], 0.25 µg/mL (≈ 0.65 µM); in the test with Escherichia coli [5], above 512 µg/mL.

On to `CO/N=C(\C(=O)N[C@@H]1C(=O)N2C(C(=O)[O-])=C(C[N+]3(C)CCCC3)CS[C@H]12)c1csc(N)n1` [CEFEPIME], for which the minimal inhibitory concentration (MIC) in the test on Capnocytophaga sputigena [1] was below 0.06 µg/mL; with Capnocytophaga sputigena [3] it was 0.125 µg/mL (≈ 0.26 µM); against Capnocytophaga sputigena [4] it was below 0.06 µg/mL; against Escherichia coli [5], 4 µg/mL (≈ 8.32 µM).

For the molecule `C[C@H]1[C@H](NC(=O)/C(=N\OC(C)(C)C(=O)O)c2csc(N)n2)C(=O)N1S(=O)(=O)O` [AZTREONAM], the minimal inhibitory concentration (MIC) in the test with Capnocytophaga sputigena [1] amounted to 0.125 µg/mL (≈ 0.287 µM); in the test with Capnocytophaga sputigena [3], 0.125 µg/mL (≈ 0.287 µM); in the test with Capnocytophaga sputigena [4], 0.125 µg/mL (≈ 0.287 µM); in the test with Escherichia coli [5] it was 16 µg/mL (≈ 36.7 µM).

Regarding `CC(C)(O/N=C(\C(=O)N[C@@H]1C(=O)N2C(C(=O)[O-])=C(C[n+]3ccccc3)CS[C@H]12)c1csc(N)n1)C(=O)O` [CEFTAZIDIME], the minimum inhibitory concentration (MIC) in the test with Capnocytophaga sputigena [1] is below 0.06 µg/mL; against Escherichia coli [2] it was below 0.06 µg/mL; against Capnocytophaga sputigena [3], 4 µg/mL (≈ 7.32 µM); with Capnocytophaga sputigena [4], below 0.06 µg/mL; with Escherichia coli [5], 0.5 µg/mL (≈ 0.915 µM).

The record behind these values is ChEMBL document CHEMBL1255478, “Characterization of CSP-1, a novel extended-spectrum beta-lactamase produced by a clinical isolate of Capnocytophaga sputigena” (2010).
